Measurements from US10669238B2, “Irreversible bruton's tyrosine kinase inhibitor” (HEFEI INSTITUTES OF PHYSICAL SCIENCE, CHINESE ACADEMY OF …, priority 2016, dated 2020).

Target: BTK protein kinase (Homo sapiens, UniProt Q06187)
Assay: In vitro enzymatic activity against BTK (ADP-Glo)
Assay type: biochemical
Conditions: compound with BTK 4 hours at room temperature, ATP 10 μM, 37° C. 1 hour
Method: In vitro enzymatic activity of the compounds against BTK was determined in a experimental assay of in vitro enzymatic activity using […] kit (purchased from Progema, USA).
9 μL of BTK protein kinase (at a concentration of 1.5 ng/μL) was used to react with compounds (1 μL) shown in the following table that were diluted three times in gradient at room temperature for 4 hours (the final concentration of the compound being 10 μM, 3 μM, 1 μM, 0.3 μM, 0.1 μM, 0.03 μM, 0.01 μM, 0.003 μM);
2 μL of ATP and 3 μL of the substrate Poly(4:1 Glu, Tyr)Peptide (Promega, USA) (the final concentrations being 10 μM and 0.2 μg/μL, respectively) were added to allow reaction at 37° C. for 1 hour;
5 μL of BTK kinase solution after reaction was taken and added into 5 μL of ADP-Glo™ (Promega, USA) reagent to allow reaction at room temperature for 40 mins so as to terminate the kinase reaction and exhaust the remaining ATP;
10 μL kinase detecting reagent was added to convert ADP to ATP, and newly synthesized ATP was detected using coupled luciferase/[…] reaction, then the IC50 values were calculated by using a plotting method based on the Envision reading.

Chain of BTK protein kinase (Q06187 whole entry): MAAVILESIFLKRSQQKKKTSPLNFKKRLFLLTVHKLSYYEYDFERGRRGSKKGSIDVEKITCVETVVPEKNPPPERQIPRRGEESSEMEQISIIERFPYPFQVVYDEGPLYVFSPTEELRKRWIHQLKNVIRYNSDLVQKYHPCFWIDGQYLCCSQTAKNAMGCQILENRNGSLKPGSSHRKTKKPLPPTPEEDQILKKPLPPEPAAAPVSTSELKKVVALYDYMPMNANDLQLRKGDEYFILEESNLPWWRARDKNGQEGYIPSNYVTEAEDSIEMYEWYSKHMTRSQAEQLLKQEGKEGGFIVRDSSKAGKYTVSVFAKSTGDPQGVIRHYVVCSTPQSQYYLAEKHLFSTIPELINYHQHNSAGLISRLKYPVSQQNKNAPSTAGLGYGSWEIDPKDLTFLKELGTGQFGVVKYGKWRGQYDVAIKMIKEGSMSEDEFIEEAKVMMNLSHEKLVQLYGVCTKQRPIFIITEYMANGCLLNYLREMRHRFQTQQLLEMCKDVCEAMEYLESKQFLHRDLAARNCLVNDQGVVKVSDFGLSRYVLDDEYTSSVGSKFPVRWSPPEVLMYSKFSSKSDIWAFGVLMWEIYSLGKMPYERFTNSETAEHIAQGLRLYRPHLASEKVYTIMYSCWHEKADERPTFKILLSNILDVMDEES

Row | IC50 (values in nM) | IC50 (values given in μM) | SMILES
1 | 25 nM |  | C=CC(=O)Nc1cc(Nc2cc(-c3cccc(NC(=O)c4cc5c(s4)CCCC5)c3C)cn(C)c2=O)ccc1N1CCN(CC)CC1 [Compound 76, N-(3-(5-((3-acrylamide-4-(4-ethylpiperazin-1-yl)phenyl)amino)-1-methyl-6-oxo-1,6-dihydropyridin-3-yl)-2-methylphenyl)-4,5,6,7-tetrahydrobenzo[b]thiophene-2-carboxamide]
2 | 71.7 nM |  | C=CC(=O)Nc1cc(Nc2cc(-c3cccc(NC(=O)c4cc5ccccc5s4)c3C)cn(C)c2=O)ccc1N1CCN(C(C)=O)CC1 [Compound 92, N-(3-(5-((4-(4-acetylpiperazin-1-yl)-3-acrylamidephenyl)amino)-1-methyl-6-oxo-1,6-dihydropyridin-3-yl)-2-methylphenyl)benzo[b]thiophene-2-carboxamide]
3 | 25 nM |  | C=CC(=O)Nc1cc(Nc2cc(-c3cccc(NC(=O)c4ccc(C(C)(C)C)cc4)c3C)cn(C)c2=O)ccc1C(=O)N(C)C [Compound 28, 2-acrylamide-4-((5-(3-(4-(tert-butyl)benzamide)-2-methylphenyl)-1-methyl-2-oxo-1,2-dihydropyridin-3-yl)amino)-N,N-dimethylbenzoylamide]
4 | 45 nM |  | C=CC(=O)Nc1cc(Nc2cc(-c3cccc(NC(=O)c4ccc(C(C)(C)C)cc4)c3C)cn(C)c2=O)ccc1C(=O)NC1CC1 [Compound 46, 2-acrylamide-4-((5-(3-(4-(tert-butyl)benzamide)-2-methylphenyl)-1-methyl-2-oxo-1,2-dihydropyridin-3-yl)amino)-N-cyclopropylbenzoylamide]
5 | > 10000 nM |  | C=CC(=O)Nc1cc(Nc2cc(-c3cccc(NC(=O)c4cccc(C(F)(F)F)c4)c3C)cn(C)c2=O)ccc1C(=O)N1CCOCC1 [Compound 57, N-(3-(5-((3-acrylamide-4-(morpholin-4-carbonyl)phenyl)amino)-1-methyl-6-oxo-1,6-dihydropyridin-3-yl)-2-methylphenyl)-3-(trifluoromethyl)benzoylamide]
6 | 15.4 nM |  | C=CC(=O)Nc1cc(Nc2cc(-c3cccc(NC(=O)c4cc5ccccc5s4)c3C)cn(C)c2=O)ccc1N(C)C [Compound 93, N-(3-(5-((3-acrylamide-4-(dimethylamino)phenyl)amino)-1-methyl-6-oxo-1,6-dihydropyridin-3-yl)-2-methylphenyl)benzo[b]thiophene-2-carboxamide]
7 | 124 nM |  | C=CC(=O)Nc1cc(Nc2cc(-c3cccc(NC(=O)c4ccc(N(C)C)cc4)c3C)cn(C)c2=O)ccc1C(=O)N1CCC(O)CC1 [Compound 56, N-(3-(5-((3-acrylamide-4-(4-hydroxypiperdin-1-carbonyl)phenyl)amino)-1-methyl-6-oxo-1,6-dihydropyridin-3-yl)-2-methylphenyl)-4-(dimethylamino)benzoylamide]
8 | 98.8 nM |  | C=CC(=O)Nc1cc(Nc2cc(-c3cccc(NC(=O)c4cc5ccccc5s4)c3C)cn(C)c2=O)ccc1N1CCOCC1 [Compound 82, N-(3-(5-((3-acrylamide-4-morpholinophenyl)amino)-1-methyl-6-oxo-1,6-dihydropyridin-3-yl)-2-methylphenyl)benzo[b]thiophene-2-carboxamide]
9 | 16.7 nM |  | C=CC(=O)Nc1cc(Nc2cc(-c3cccc(NC(=O)c4cc5c(s4)CCCC5)c3C)cn(C)c2=O)ccc1N1CCC(N(C)C)CC1 [Compound 83, N-(3-(5-((3-acrylamide-4-(4-(dimethylamino)piperidin-1-yl)phenyl)amino)-1-methyl-6-oxo-1,6-dihydropyridin-3-yl)-2-methylphenyl)-4,5,6,7-tetrahydrobenzo[b]thiophene-2-carboxamide]
10 | 22 nM |  | C=CC(=O)Nc1cc(Nc2cc(-c3cccc(NC(=O)c4ccc(C(C)C)cc4)c3C)cn(C)c2=O)ccc1C(=O)N1CCOCC1 [Compound 64, N-(3-(5-((3-acrylamide-4-(morpholin-4-carbonyl)phenyl)amino)-1-methyl-6-oxo-1,6-dihydropyridin-3-yl)-2-methylphenyl)-4-isopropylbenzoylamide]
11 | 503 nM |  | CCC(=O)Nc1cc(Nc2cc(-c3cccc(NC(=O)c4ccc(C(C)(C)C)cc4)c3C)cn(C)c2=O)ccc1C(=O)N1CCN(C(=O)OC(C)(C)C)CC1 [Compound 39, tertbutyl 4-(2-propanamide-4-((5-(3-(4-(tert-butyl)benzamide)-2-methylphenyl)-1-methyl-2-oxo-1,2-dihydropyridin-3-yl)amino)benzoyl)piperazin-1-carboxylate]
12 | 23.1 nM |  | C=CC(=O)Nc1cc(Nc2cc(-c3cccc(NC(=O)c4cc5c(s4)CCCC5)c3C)cn(C)c2=O)ccc1N1CCN(C(C)C)CC1 [Compound 89, N-(3-(5-((3-acrylamide-4-(4-isopropylpiperazin-1-yl)phenyl)amino)-1-methyl-6-oxo-1,6-dihydropyridin-3-yl)-2-methylphenyl)-4,5,6,7-tetrahydrobenzo[b]thiophene-2-carboxamide]
13 | 212 nM |  | C=CC(=O)Nc1cc(Nc2cc(-c3cccc(NC(=O)c4ccc(C(C)(C)C)cc4)c3C)cn(C)c2=O)ccc1C [Compound 25, N-(3-(5-((3-acrylamide-4-methylphenyl)amino)-1-methyl-6-oxo-1,6-dihydropyridin-3-yl)-2-methylphenyl)-4-(tert-butyl)benzamide]
14 | 30 nM |  | C=CC(=O)Nc1cc(Nc2cc(-c3cccc(NC(=O)c4ccc(C)s4)c3C)cn(C)c2=O)ccc1C(=O)N1CCOCC1 [Compound 71, N-(3-(5-((3-acrylamide-4-(morpholin-4-carbonyl)phenyl)amino)-1-methyl-6-oxo-1,6-dihydropyridin-3-yl)-2-methylphenyl)-5-methylthiophene-2-carboxamide]
15 | 165 nM |  | CCC(=O)Nc1cc(Nc2cc(-c3cccc(NC(=O)c4ccc(C(C)(C)C)cc4)c3C)cn(C)c2=O)ccc1C(=O)N1CCCC1 [Compound 33, N-(3-(5-((3-propanamide-4-(pyrrolidin-1-carbonyl)phenyl)amino)-1-methyl-6-oxo-1,6-dihydropyridin-3-yl)-2-methylphenyl)-4-(tert-butyl)benzamide]
16 | 19 nM |  | C=CC(=O)Nc1cc(Nc2cc(-c3cccc(NC(=O)c4ccc(C(C)(C)C)cc4)c3C)cn(C)c2=O)ccc1C(=O)N1CCCC1 [Compound 31, N-(3-(5-((3-acrylamide-4-(pyrrolidin-1-carbonyl)phenyl)amino)-1-methyl-6-oxo-1,6-dihydropyridin-3-yl)-2-methylphenyl)-4-(tert-butyl)benzamide]
17 | 24 nM |  | C=CC(=O)Nc1cc(Nc2cc(-c3cccc(NC(=O)c4ccc(C(C)(C)C)cc4)c3C)cn(C)c2=O)ccc1C(=O)N1CCCC(O)C1 (centres unmarked) [Compound 47, N-(3-(5-((3-acrylamide-4-(3-hydroxypiperidin-1-carbonyl)phenyl)amino)-1-methyl-6-oxo-1,6-dihydropyridin-3-yl)-2-methylphenyl)-4-(tert-butyl)benzamide]
18 | 187 nM |  | C=CC(=O)Nc1cc(Nc2cc(-c3cccc(NC(=O)c4ccc5c(c4)OCO5)c3C)cn(C)c2=O)ccc1C(=O)N1CCOCC1 [Compound 18, N-(3-(5-((3-acrylamide-4-(morpholin-4-carbonyl)phenyl)amino)-1-methyl-6-oxo-1,6-dihydropyridin-3-yl)-2-methylphenyl)-benzo[d][1,3]dioxolanyl-5-carboxamide]
19 | 83 nM |  | C=CC(=O)Nc1cc(Nc2cc(-c3cccc(NC(=O)c4cc5c(s4)CCCC5)c3C)cn(C)c2=O)ccc1N1CCCC1 [Compound 80, N-(3-(5-((3-acrylamide-4-(pyrrolidin-1-yl)phenyl)amino)-1-methyl-6-oxo-1,6-dihydropyridin-3-yl)-2-methylphenyl)-4,5,6,7-tetrahydrobenzo[b]thiophene-2-carboxamide]
20 |  | 2610 nM | C=CC(=O)Nc1cc(NC(=O)c2ccc(C(C)(C)C)cc2)c(C)c(-c2cc(Nc3ccc(C(=O)N4CCOCC4)cc3)c(=O)n(C)c2)c1 [Compound 8, 4-(tert-butyl)-N-(5-(2-acrylamide)-2-methyl-3-(1-methyl-5-((4-(morpholin-4-carbonyl)phenyl)amino)-6-oxo-1,6-dihydropyridin-3-yl)phenyl)benzoylamide]
21 | 646 nM |  | CCC(=O)Nc1cc(Nc2cc(-c3cccc(NC(=O)c4ccc(N(C)C)cc4)c3C)cn(C)c2=O)ccc1C(=O)N1CCOCC1 [Compound 37, N-(3-(5-((3-propanamide-4-(morpholin-4-carbonyl)phenyl)amino)-1-methyl-6-oxo-1,6-dihydropyridin-3-yl)-2-methylphenyl)-4-(dimethylamino)benzo]
22 | 167 nM |  | C=CC(=O)Nc1cc(Nc2cc(-c3cccc(NC(=O)c4cc5c(s4)CCCC5)c3C)cn(C)c2=O)ccc1N1CCC(OC)CC1 [Compound 88, N-(3-(5-((3-acrylamide-4-(4-methoxypiperidin-1-yl)phenyl)amino)-1-methyl-6-oxo-1,6-dihydropyridin-3-yl)-2-methylphenyl)-4,5,6,7-tetrahydrobenzo[b]thiophene-2-carboxamide]
23 |  | 4620 nM | C=CC(=O)Nc1cc(Nc2cc(-c3cccc(NC(=O)c4ccccc4)c3C)cn(C)c2=O)ccc1C(=O)N1CCOCC1 [Compound 12, N-(3-(5-((3-acrylamide-4-(morpholin-4-carbonyl)phenyl)amino)-1-methyl-6-oxo-1,6-dihydropyridin-3-yl)-2-methylphenyl)benzoylamide]
